The values below come from US20260207621A1 (Vividion Therapeutics, Inc., priority 2022, published 2026).

SMILES strings stand for the structures.

One experiment has as its target T1, KEAP1 C151 (Homo sapiens, UniProt Q14145).
T1 construct: treating 500 μg of cell lysate generated from MDA-MB-468 breast cancer cells with DMSO or compound; endogenous in cells; host or cells: MDA-MB-468 breast cancer cell lysate
The experiment can be described thus: Nrf2 TMT measurement: in vitro TE50 for KEAP1 C151 (IA-DTB competition, targeted TMT mass spectrometry) in MDA-MB-468 cell lysate. The class given is binding. To be noted: in vitro target engagement of KEAP1 C151, targeted TMT, read-out: KEAP1_C151 TE50. As to the method:
In vitro TE50 values for KEAP_C151 were obtained by treating 500 μg of cell lysate generated from MDA-MB-468 breast cancer cells with DMSO or compound for 1 hour at room temperature followed by the addition of 200 μM IA-DTB (in DMSO) for one hour at room temperature. Samples were then precipitated by the addition of 8× ice cold acetonitrile and incubated at −80° C. for two hours. Protein was then pelleted by centrifugation (4,200 RPM, 45 min, 4° C.). The pelleted material was resuspended in 9M Urea, 50 mM ammonium bicarbonate and proteins were reduced and alkylated by the addition of DTT and iodoacetamide (10 and 30 mM, respectively). Following reduction and alkylation, samples were exchanged into 2M urea (Zeba spin desalting plates, Thermo Fisher) and digested with Trypsin. IA-DTB labeled peptides were isolated with streptavidin agarose resin. Enriched peptides were eluted by the addition of 50% acetonitrile (ACN) 0.1% Formic Acid (FA) and dried in a SpeedVac vacuum concentrator.
Dried peptides were resuspended in 0.2 M EPPS pH 8.5 and treated with 6.5 μL of 11-plex tandem mass tag (TMT) (8.3 μg/μL in dry ACN) for 2 hours at room temperature. Reactions were quenched by the addition of 6.5 μL of 5% Hydroxylamine. Samples were then combined and desalted on a Biotage Evolute express ABN plate (600-0010-PX01).
Targeted TMT. Targeted TMT measurements were collected using an Orbitrap LumosTribrid Mass Spectrometer (Thermo Scientific) coupled to an UltiMate 3000 Series Rapid Separation LC system and autosampler (Thermo Scientific Dionex). Peptides were eluted onto a custom C18 capillary analytical column (75-μm inner diameter fused silica, packed with Acclaim PepMap C18 resin (Thermo Scientific)) using an Acclaim PepMap 100 (Thermo 164535) loading column, and separated at a flow rate of 1.0 μl min−1. Data were acquired using a specific MS3-based TMT method targeting the peptide containing KEAP1 C151 (C(+324.2)[…], +3 charge state) where MS2 peptide fragmentation is triggered upon detection of the peptide precursor ion. Subsequent MS3 analysis was then performed using pre-selected peptide fragment ions that were isolated for fragmentation using synchronous precursor selection. RAW files were converted to MZXML format and searched with the SEQUEST algorithm using the MassPike software package. TMT quantitation was performed with a filter requiring at least ten summed signal-to-noise for control channels. Quantified signals were used for dose response curve-fitting and IC50 calculation using R's drc package.

The next experiment has as its system Nrf2. Kind of experiment: Nrf2 antagonism assay: ARE luciferase reporter in KYSE-70 cells. The class given is cell-based. The following applies: positive Imax corresponds to Nrf2 antagonism; for Emax: Homo sapiens, KYSE-70, KYSE-70 cells, read-out: KYSE70 Cellular ARE Luciferase Imax (%); for KYSE70 Cellular ARE Luciferase Imax (%): KYSE-70 cells. An excerpt:
NRF2 binds to a promoter region, antioxidant response element (ARE), to initiate expression of multiple genes. ARE luciferase reporter assays are used to test whether a ligand can activate or repress the expression of target genes using luciferase as a reporter gene.
KYSE-70 is an esophageal squamous cell carcinoma cell line with a Nrf2 mutation at amino acid position W24C. This mutation lowers the affinity between the E3 ligase that includes KEAP1 and Nrf2, resulting in a state in which the synthesis rate of new Nrf2 is faster than the E3's degradation rate of Nrf2, resulting in a “Nrf2 high” state. In KYSE-70 cells, genes are inserted directly after the ARE that trigger the expression of luciferase. Without a NRF2 antagonist in this modified KYSE70 cell line which has an inherently “NRF2 high state”, luciferase is expressed, and a signal is observed.
Nrf2 antagonists bind at C151 of KEAP1 and stabilize the E3 which results in an increased degradation rate of Nrf2. Increased degradation of Nrf2 results in less expression of luciferase, and therefore a less intense signal.
An IC50 is generated from the dose-response curve and an Imax. A positive Imax corresponds to Nrf2 antagonism. Imax >90% correlates with in vivo tumor grown inhibition. Compounds with Imax >50% were included in this description.
On the technique in general: In a reporter assay the amount or activity of a reporter protein is the signal.

T1 sequence (Q14145 whole entry): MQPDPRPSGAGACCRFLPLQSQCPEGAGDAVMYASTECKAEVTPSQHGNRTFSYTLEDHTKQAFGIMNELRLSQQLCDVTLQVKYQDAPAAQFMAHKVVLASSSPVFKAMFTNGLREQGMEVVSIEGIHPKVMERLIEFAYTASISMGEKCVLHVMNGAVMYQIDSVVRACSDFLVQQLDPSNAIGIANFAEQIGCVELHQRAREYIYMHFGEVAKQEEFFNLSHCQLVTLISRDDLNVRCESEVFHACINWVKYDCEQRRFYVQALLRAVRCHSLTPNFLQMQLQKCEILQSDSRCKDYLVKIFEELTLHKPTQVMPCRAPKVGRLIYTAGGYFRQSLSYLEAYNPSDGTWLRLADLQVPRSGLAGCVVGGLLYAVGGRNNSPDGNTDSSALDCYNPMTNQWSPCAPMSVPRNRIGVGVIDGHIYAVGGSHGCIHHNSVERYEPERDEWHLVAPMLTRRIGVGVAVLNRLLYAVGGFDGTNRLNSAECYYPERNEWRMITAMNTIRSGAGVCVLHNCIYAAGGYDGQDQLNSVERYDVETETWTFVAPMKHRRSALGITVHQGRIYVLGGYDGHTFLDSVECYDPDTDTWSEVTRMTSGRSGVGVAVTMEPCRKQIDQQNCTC

In the case of `C=CC(=O)N1[C@H](C)COC[C@H]1c1cc(Cl)nc(-c2ccnc(C(N)=O)c2)c1` (single isomer, unassigned) [Compound 145], on KEAP1 C151, the IC50 was found to be 11 nM. The Emax with Nrf2 is 90%.

As for `C=CC(=O)N1CC(C)(C)OC[C@H]1c1cc(Cl)cc(-c2ccnc(C(N)=O)c2)c1` (single isomer, unassigned) [Compound 133], at KEAP1 C151, the IC50 was found to be 72 nM. For the same molecule, the Emax in the experiment with Nrf2 came out at 85%.

With `C=CC(=O)N1CCN(C(C)=O)C[C@H]1c1cc(Cl)cc(C2CCOCC2)c1` (single isomer, unassigned) [Compound 26], the IC50 at KEAP1 C151 was 88 nM. Also, in the experiment on Nrf2, the Emax was determined as 56%.

Consider `C=CC(=O)N1CCOC[C@H]1c1cc(Cl)cc(-c2nc(C(N)=O)co2)c1` (single isomer, unassigned) [Compound 224], for which, on KEAP1 C151, the IC50 was 170 nM. In addition, the Emax in the experiment with Nrf2 stood at 90%.

As for `C=CC(=O)N1CC2(CC2)OCC1(C)c1cc(Cl)cc(-c2cc(N)ncn2)c1` (single isomer, unassigned) [Compound 167, 1-(6-(3-(6-aminopyrimidin-4-yl)-5-chlorophenyl)-6-methyl-4-oxa-7-azaspiro[2.5]octan-7-yl)prop-2-en-1-one], the IC50 at KEAP1 C151 stood at 2890 nM. In the experiment with Nrf2, the Emax was determined as 87%.

Take `C=CC(=O)N1CCOC[C@H]1c1cc(Cl)cc(-c2ccc3c(c2)C(=O)NC3)c1` (single isomer, unassigned) [Compound 82]: the IC50 at KEAP1 C151 is less than 10 nM. Also, the Emax in the experiment on Nrf2 was 77%.

In the case of `C=CC(=O)N1CCOC[C@H]1c1cc(Cl)cc(-c2nc(N)cnc2F)c1` (single isomer, unassigned) [Compound 280], the IC50 on KEAP1 C151 worked out at 32 nM. For the same molecule, in the experiment on Nrf2, the Emax is 90%.

For the molecule `C=CC(=O)N1CCOCC1c1cc(Cl)nc(-c2ccnc(C)n2)c1` (single isomer, unassigned) [Compound 121, 1-(3-(2-chloro-6-(2-methylpyrimidin-4-yl)pyridin-4-yl)morpholino)prop-2-en-1-one], the IC50 on KEAP1 C151 amounted to 26 nM. The Emax with Nrf2 is 82%.

As for `C=CC(=O)N1CCOCC1c1cc(Cl)nc(-c2ccc(F)c(C(N)=O)c2)c1` (single isomer, unassigned) [Compound 65, 5-(4-(4-acryloylmorpholin-3-yl)-6-chloropyridin-2-y1)-2-fluorobenzamide], the IC50 on KEAP1 C151 was found to be 24 nM. Besides, the Emax in the experiment with Nrf2 came out at 88%.

For `C=CC(=O)N1CCOC[C@H]1c1cc(Cl)cc(-c2cc(OC)ccn2)c1` (single isomer, unassigned) [Compound 105], at KEAP1 C151, the IC50 amounted to 36 nM. Besides, in the experiment with Nrf2, the Emax came out at 92%.

As to `C=CC(=O)N1CC2(CC2)OCC1c1cc(Cl)nc(-c2cc(N)ncn2)c1` (single isomer, unassigned) [Compound 174, 1-(6-(2-(6-aminopyrimidin-4-yl)-6-chloropyridin-4-yl)-4-oxa-7-azaspiro[2.5]octan-7-yl)prop-2-en-1-one], the IC50 on KEAP1 C151 came to 76 nM. Further, the “KYSE70 Cellular ARE Luciferase Imax (%)” value with Nrf2 is listed as 51%.

In the case of `C=CC(=O)N1CCOC[C@H]1c1cc(Cl)cc(-c2c[nH]nn2)c1` (single isomer, unassigned) [Compound 269], the IC50 on KEAP1 C151 came out at 950 nM. Besides, in the experiment on Nrf2, the Emax was determined as 72%.

As for `C=CC(=O)N1CC(C)(C)S(=O)(=O)CC1c1cc(Cl)cc(-c2nccc(N)n2)c1` (single isomer, unassigned) [Compound 246, 1-(5-(3-(4-aminopyrimidin-2-yl)-5-chlorophenyl)-2,2-dimethyl-1,1-dioxidothiomorpholino)prop-2-en-1-one], at KEAP1 C151, the IC50 amounted to 43 nM. For the same molecule, the Emax with Nrf2 worked out at 90%.

With `C=CC(=O)N1CCOC[C@H]1c1cc(Cl)cc(C2CNC(=O)N(C)C2)c1` (single isomer, unassigned) [Compound 217], the IC50 on KEAP1 C151 came to 30 nM. In the experiment on Nrf2, the “KYSE70 Cellular ARE Luciferase Imax (%)” value amounted to 78%.

For `C=CC(=O)N1CCOCC1c1cc(Cl)cc(-c2cccc(C(N)=O)c2)c1` (single isomer, unassigned) [Compound 71, 3′-(4-acryloylmorpholin-3-yl)-5′-chloro-[1,1′-biphenyl]-3-carboxamide], the IC50 on KEAP1 C151 amounted to 30 nM. In the experiment on Nrf2, the Emax came out at 78%.

Take `C=CC(=O)N1CC(C)(C)OC[C@H]1c1cc(Cl)cc(-c2cnc(N)c(N)n2)c1` (single isomer, unassigned) [Compound 286]: on KEAP1 C151, the IC50 worked out at 32 nM. Further, the Emax in the experiment with Nrf2 was 96%.

Take `C=CC(=O)N1[C@H](C)COC[C@H]1c1cc(Cl)cc(-c2ncc(N)cn2)c1` (single isomer, unassigned) [Compound 130]: the IC50 at KEAP1 C151 is 94 nM. Moreover, the Emax with Nrf2 is 89%.

Consider `C=CC(=O)N1CCOC[C@H]1c1cc(Cl)cc(-c2nc(O)n[nH]2)c1` (single isomer, unassigned) [Compound 210], for which, on KEAP1 C151, the IC50 came to 380 nM. The Emax in the experiment with Nrf2 worked out at 55%.

As for `[2H]c1nc(N)nc(-c2cc(Cl)cc([C@@H]3COCCN3C(=O)C=C)c2)n1` (single isomer, unassigned) [Compound 208], the Emax in the experiment on Nrf2 was found to be 94%.

For the molecule `C=CC(=O)N1CCOC[C@H]1c1cc(Cl)cc(-c2nc(N)nc(Cl)n2)c1` (single isomer, unassigned) [Compound 199], in the experiment on Nrf2, the Emax amounted to 92%.

Regarding `C=CC(=O)N1CCN(C(=O)C2CC2)C[C@H]1c1cc(Cl)cc(-c2ccnc(N)n2)c1` (single isomer, unassigned) [Compound 185], in the experiment on Nrf2, the Emax stood at 94%.

`C=CC(=O)N1CCOCC1(C)c1cc(Cl)cc(-c2ncnc(N)n2)c1` (single isomer, unassigned) [Compound 112, 1-(3-(3-(4-amino-1,3,5-triazin-2-yl)-5-chlorophenyl)-3-methylmorpholino)prop-2-en-1-one]: in the experiment on Nrf2, the Emax turned out to be 95%.

As for `C=CC(=O)N1[C@H](C(N)=O)COC[C@H]1c1cc(Cl)nc(-c2ccc(F)c(C(N)=O)c2)c1` (single isomer, unassigned) [Compound 181], the Emax with Nrf2 was found to be 66%.

For the molecule `C=CC(=O)N1CCOCCC1c1cc(Cl)cc(-c2ncnc(N)n2)c1` (racemic) [Compound 152, 1-(5-(3-(4-amino-1,3,5-triazin-2-yl)-5-chlorophenyl)-1,4-oxazepan-4-yl)prop-2-en-1-one], the Emax in the experiment on Nrf2 was determined as 78%.

For the molecule `C=CC(=O)N1CCOCC1c1cc(Cl)cc(-c2nccc3[nH]ccc23)c1` (single isomer, unassigned) [Compound 111, 1-(3-(3-chloro-5-(1H-pyrrolo[3,2-c]pyridin-4-yl)phenyl)morpholino)prop-2-en-1-one], the Emax in the experiment with Nrf2 is 90%.

On to `C=CC(=O)N1[C@H](c2cc(Cl)nc(-c3cc(C)ncn3)c2)COC[C@H]1C(F)F` [Compound 201, 1-((3R,5S)-3-(2-chloro-6-(6-methylpyrimidin-4-yl)pyridin-4-y1)-5-(difluoromethyl)morpholino)prop-2-en-1-one], for which, in the experiment with Nrf2, the Emax is 93%.

Regarding `C=CC(=O)N1CCOCC12COc1c(-c3ncnc(N)n3)cc(Cl)cc12` (single isomer, unassigned) [Compound 151, 1-(7-(4-amino-1,3,5-triazin-2-yl)-5-chloro-2H-spiro[benzofuran-33′-morpholino]-4′-yl)prop-2-en-1-one], the Emax in the experiment with Nrf2 amounted to 81%.

For `C=CC(=O)N1CCOC[C@H]1c1cc(Cl)cc(-c2cn[nH]c2)c1` (single isomer, unassigned) [Compound 117], the Emax in the experiment on Nrf2 turned out to be 84%.
